The source of these data is article PMC3835915, “Diversification of Fungal Specific Class A Glutathione Transferases in Saprotrophic Fungi” (PLoS ONE, 2013).

For test [1], the target named is T1, PcGSTFuA2.
T1 construct: gene GSTFuA2; full length, untagged, pET-3d, E. coli BL21(DE3) pSBET; Ala inserted after Met1; dimer; primers encode N-term MASQPIVF, C-term ERADD
Nature of the test: ANS displacement, fluorescence. Conditions: TE buffer pH 8.0; 3 µM enzyme; ANS probe at L-site overlapping G-site. The test is classed as binding, Phanerodontia chrysosporium. The text has this: ANS displacement, fluorescence on PcGSTFuA2

Another test deals with T2, PcGSTFuA4 (Phanerodontia chrysosporium, UniProt M1NR33).
T2 construct: full length, untagged, pET-3d, E. coli BL21(DE3) pSBET; primers encode N-term MADVITLY, C-term AHVDL
T2 sequence (M1NR33 entry or part of it): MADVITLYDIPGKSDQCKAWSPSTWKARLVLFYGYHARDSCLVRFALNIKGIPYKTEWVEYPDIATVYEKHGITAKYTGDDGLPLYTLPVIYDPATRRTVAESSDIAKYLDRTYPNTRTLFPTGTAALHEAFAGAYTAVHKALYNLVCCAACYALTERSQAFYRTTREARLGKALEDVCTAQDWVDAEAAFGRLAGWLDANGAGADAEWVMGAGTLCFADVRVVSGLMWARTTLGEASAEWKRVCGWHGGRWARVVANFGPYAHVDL
Nature of the test: ANS displacement, fluorescence. The test is classed as binding. Conditions: TE buffer pH 8.0; 3 µM enzyme; ANS probe at L-site overlapping G-site. The text has this: ANS displacement, fluorescence on PcGSTFuA4

A further test concerns the target T3, PcGSTFuA1 (Phanerodontia chrysosporium, UniProt I6ZUH3).
T3 construct: full length, untagged, pET-3d, E. coli BL21(DE3) pSBET; Ala inserted after Met1; dimer; primers encode N-term MAQPIVF, C-term EQVDV
Nature of the test: ANS displacement, fluorescence. The test is classed as binding. An excerpt: ANS displacement, fluorescence on PcGSTFuA1

For test [2], the target named is T4, PcGSTFuA3.
T4 construct: gene GSTFuA3; full length, untagged, pET-3d, E. coli BL21(DE3) pSBET; Ala inserted after Met1; dimer; primers encode N-term MASLEPII, C-term EFVDV
Nature of the test: ANS displacement, fluorescence. Conditions: TE buffer pH 8.0; 3 µM enzyme; ANS probe at L-site overlapping G-site. The test is classed as binding, Phanerodontia chrysosporium. The text has this:
ANS displacement, fluorescence on PcGSTFuA3

Test [3] deals with T5, CcGSTFuA6801.
T5 construct: gene GSTFuA6801; full length, untagged, pET-3d, E. coli BL21(DE3) pSBET; primers encode N-term MAITFYDI, C-term YHTVA
Nature of the test: ANS displacement, fluorescence. It counts as binding, Coprinopsis cinerea. The conditions noted are these: TE buffer pH 8.0; 3 µM enzyme; ANS probe; read-out: PcGSTFuA3 / ANS. An excerpt:
ANS displacement, fluorescence on CcGSTFuA6801

For another test, the target named is T6, CcGSTFuA6820.
T6 construct: gene GSTFuA6820; full length, untagged, pET-3d, E. coli BL21(DE3) pSBET; primers encode N-term MAITLYDS, C-term YQAVH
The test can be described thus: inhibition of MUA esterase activity, fluorescence. The conditions noted are these: non-competitive vs MUA; no GSH; 30 mM Tris-HCl pH 8; 2 µM enzyme; read-out: PcGSTFuA4 / ANS. The test is classed as biochemical, Coprinopsis cinerea. The text has this: inhibition of MUA esterase activity, fluorescence on CcGSTFuA6820

In a further test the target is T7, CcGSTFuA2461.
T7 construct: gene GSTFuA2461; full length, untagged, pET-3d, E. coli BL21(DE3) pSBET; primers encode N-term MAITFYDL, C-term TGSKL
The test can be described thus: inhibition of MUA esterase activity, fluorescence. It counts as biochemical, Coprinopsis cinerea. The conditions noted are these: competitive vs MUA; no GSH; 30 mM Tris-HCl pH 8; 2 µM enzyme; read-out: PcGSTFuA1 / ANS. The text has this: inhibition of MUA esterase activity, fluorescence on CcGSTFuA2461

Another test concerns T8, CcGSTFuA6800.
T8 construct: gene GSTFuA6800; full length, untagged, pET-3d, E. coli BL21(DE3) pSBET; primers encode N-term MAIILYDL, C-term YTTVV
Nature of the test: esterase activity, fluorescence. It counts as biochemical, Coprinopsis cinerea. The conditions noted are these: no GSH. The text has this: esterase activity, fluorescence on CcGSTFuA6800

Test [4] relates to T1, PcGSTFuA2. Nature of the test: esterase activity, fluorescence. The conditions noted are these: no GSH; 30 mM Tris-HCl pH 8. The test is classed as biochemical, Phanerodontia chrysosporium. An excerpt: esterase activity, fluorescence on PcGSTFuA2
For test [5], the system named is T5, CcGSTFuA6801. The test can be described thus: GSH conjugation, absorbance […] nm. The conditions noted are these: 5 mM GSH; pH 6.5; 2% acetonitrile. It counts as biochemical, Coprinopsis cinerea.
The subject of test [6] is T4, PcGSTFuA3. The test can be described thus: GSH conjugation, absorbance […] nm. The test is classed as biochemical, Phanerodontia chrysosporium. The conditions noted are these: 5 mM GSH; pH 6.5; 2% acetonitrile.

Like-named read-outs stand apart in the source and are kept apart here.

T3 sequence (I6ZUH3 entry or part of it): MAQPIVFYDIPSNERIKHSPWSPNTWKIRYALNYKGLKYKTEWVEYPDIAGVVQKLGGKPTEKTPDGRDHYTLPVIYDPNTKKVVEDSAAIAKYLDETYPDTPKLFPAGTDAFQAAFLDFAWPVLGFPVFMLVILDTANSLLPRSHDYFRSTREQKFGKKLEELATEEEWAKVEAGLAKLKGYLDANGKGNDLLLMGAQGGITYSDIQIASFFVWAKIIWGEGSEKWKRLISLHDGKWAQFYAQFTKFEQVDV

For `COc1cc(C=O)ccc1O` [Vanillin], the IC50 on PcGSTFuA2 [1] amounted to 84.7 ± 5.2 µM.

Take `COc1cc(C=O)cc(OC)c1O` [Syringaldehyde]: the IC50 on PcGSTFuA4 turned out to be 199 ± 25.2 µM; on PcGSTFuA1 it was 62.5 ± 1.6 µM; on PcGSTFuA3 [2] it was 37.2 ± 3.8 µM; at CcGSTFuA6801 [3], 276 ± 97.8 µM; on PcGSTFuA2 [1] it was 89.3 ± 2.8 µM. Also, on CcGSTFuA6820, the Ki came out at 594 ± 37.6 µM.

For the molecule `O=C(O)c1ccc(Cl)c([N+](=O)[O-])c1` [4-chloro-3-nitrobenzoic acid], the Ki on CcGSTFuA2461 worked out at 287 ± 29.7 µM.

With `CC(=O)Oc1ccc2c(c1)Oc1cc(OC(C)=O)ccc1C21OC(=O)c2cc(CCl)ccc21` [CMFDA], the Km in the test with CcGSTFuA6800 (50 mM phosphate pH 8.0, read-out: CcGSTFuA6800) turned out to be 0.153 ± 0.023 µM.

Turning to `CC(=O)Oc1ccc2c(C)cc(=O)oc2c1` [MUA], the Km in the test with CcGSTFuA6800 (30 mM Tris-HCl pH 8, read-out: PcGSTFUA2) was 25.4 ± 4.37 µM; in the test with PcGSTFuA2 [4], 23.5 ± 6.2 µM.

In the case of `S=C=NCCc1ccccc1` [phenethyl-ITC], the values for the Km with CcGSTFuA6801 [5] and in the test with PcGSTFuA3 [6] were 41.6 ± 3.73 µM and 53.2 ± 5.37 µM, respectively.

Regarding `O=C(O)c1cc(O)c(O)c(O)c1` [Gallic acid], the Ki on CcGSTFuA2461 stood at 114 ± 8.9 µM; on CcGSTFuA6820, 566 ± 16.5 µM.

Consider `COc1cc(/C=C/C=O)ccc1O` [Coniferaldehyde], for which the IC50 at PcGSTFuA4 is 147 ± 5.1 µM; on PcGSTFuA1 it was 62.3 ± 1.2 µM; at PcGSTFuA3 [2] it was 68.4 ± 25.3 µM; at CcGSTFuA6801 [3] it was 327 ± 50.6 µM.
